Source: patent publication US20080311266A1, “Salt Enhancement” (priority 2007, published 2008)

Assays:
tasting panel = experiment: Tasting panel test of perceived saltiness in salt-reduced broth; assay type: in vivo; conditions: for Level at which saltiness increase perceived / Effect on the perceived saltiness: salt-reduced broth, tasting panel; for Effect on the perceived saltiness: in words; for Upper threshold value for salt enhancement: stated in description
Experimental: A variety of compounds (listed in the table above) was tested in a salt-reduced broth. The compounds concerned were simply added to samples of the broth in a variety of concentrations and stirred in. The samples were tested by their being submitted to a tasting panel, which recorded its perceptions as to which sample (and therefore at what level of compound) a perception of increased saltiness was observed. The results are recorded in the table in the specification above.

[1] = Cooling threshold (level at which cooling effect detected); assay type: in vivo

Row | Structure (SMILES) | Level at which saltiness increase perceived (tasting panel) [ppm] | Threshold level at which cooling effect detected - estimated [1] [ppm] | Effect on the perceived saltiness (tasting panel) | Upper threshold value for salt enhancement (tasting panel) [ppm]
1 | CC1CCC(C(C)C)C(O)C1 (stereo not shown) [Menthol, menthol] | 0.05 | 1.5 | – | –
2 | CC1CCC(C(C)C)C(C(=O)Nc2ccc(CC#N)cc2)C1 (stereo not shown) [Compound 1, N-(4-cyanomethylphenyl) p-menthanecarboxamide] | 0.005 | 0.08 | considerably greater effect | 0.005
3 | CC1CCC(C(C)C)C(OC(=O)C(C)O)C1 (stereo not shown) [menthyl lactate] | 0.05 | 0.8 | – | –
4 | CNC(=O)C(C)(C(C)C)C(C)C [WS23] | 0.05 | 1.5 | – | –
5 | CC(C)[C@@H]1CC[C@@H](C)C[C@H]1C(=O)NCCc1ccccn1 [Compound 2, (1R,2S,5R)-2-isopropyl-5-methyl-N-(2-(pyridin-2-yl)ethyl)cyclohexanecarboxamide] | 0.005 | 0.08 | considerably greater effect | 0.005
6 | CCNC(=O)C1CC(C)CCC1C(C)C (stereo not shown) [WS3] | 0.05 | 1 | – | –
